Data from ChEMBL document CHEMBL5649166, “RIP3 induces apoptosis independent of pronecrotic kinase activity” (Mol Cell, 2014).
Active and inactive are the calls of the source. No cut-off for these calls is given here.

Key:
[1] = target: Ephrin type-A receptor 7 (Homo sapiens) (UniProt Q15375); assay: Inhibition of human EPHA7 using poly[Glu:Tyr] (4:1) as substrate at 1 uM in presence of 32P-ATP by Hotspot assay relative to control; values are per cent of control
[2] = target: Serine/threonine-protein kinase N2 (Homo sapiens) (UniProt Q16513); assay: Inhibition of human PKN2/PRK2 using KKLNRTLSVA as substrate at 1 uM in presence of 32P-ATP by Hotspot assay relative to control; values are per cent of control
Serine/threonine-protein kinase N2 (Homo sapiens), sequence (Q16513 whole entry, looked up): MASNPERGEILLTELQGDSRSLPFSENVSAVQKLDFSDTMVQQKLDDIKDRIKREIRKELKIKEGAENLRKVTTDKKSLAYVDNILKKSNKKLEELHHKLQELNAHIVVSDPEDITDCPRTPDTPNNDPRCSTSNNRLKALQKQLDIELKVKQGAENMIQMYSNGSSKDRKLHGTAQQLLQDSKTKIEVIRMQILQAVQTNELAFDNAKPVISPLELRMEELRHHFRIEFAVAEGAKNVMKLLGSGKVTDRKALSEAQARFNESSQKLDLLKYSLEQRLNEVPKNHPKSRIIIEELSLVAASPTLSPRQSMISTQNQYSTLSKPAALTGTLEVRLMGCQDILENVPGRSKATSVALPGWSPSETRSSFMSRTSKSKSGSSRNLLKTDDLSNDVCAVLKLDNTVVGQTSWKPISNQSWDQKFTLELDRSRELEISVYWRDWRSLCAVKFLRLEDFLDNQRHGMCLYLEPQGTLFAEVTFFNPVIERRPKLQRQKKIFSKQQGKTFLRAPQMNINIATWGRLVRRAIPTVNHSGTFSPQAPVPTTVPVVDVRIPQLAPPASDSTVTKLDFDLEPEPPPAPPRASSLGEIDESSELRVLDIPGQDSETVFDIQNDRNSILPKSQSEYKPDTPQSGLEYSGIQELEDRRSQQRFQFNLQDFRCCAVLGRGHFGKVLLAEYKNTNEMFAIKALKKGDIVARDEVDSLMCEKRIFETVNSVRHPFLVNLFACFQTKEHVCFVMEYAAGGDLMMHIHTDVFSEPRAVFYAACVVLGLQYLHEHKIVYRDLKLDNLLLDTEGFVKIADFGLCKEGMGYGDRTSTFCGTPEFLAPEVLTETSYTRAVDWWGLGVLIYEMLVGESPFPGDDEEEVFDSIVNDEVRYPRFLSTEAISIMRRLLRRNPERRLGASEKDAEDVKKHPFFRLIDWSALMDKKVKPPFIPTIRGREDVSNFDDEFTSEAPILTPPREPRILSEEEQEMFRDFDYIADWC

[3] = system: BMDM; assay: Inhibition of TNF-alpha induced necroptosis in mouse BMDM cells assessed as increase in cell viability at 0.04 to 1 uM incubated for 18 hrs in presence of zVAD and BV6 by Cell Titer-Glo luminescent cell viability assay; format: functional, cell-based; settings: dose 0.04-1 µM
[4] = target: Calcium/calmodulin-dependent protein kinase type 1G (Homo sapiens) (UniProt Q96NX5); assay: Inhibition of human CAMK1g using KKALRRQETVDAL as substrate at 1 uM in presence of 32P-ATP by Hotspot assay relative to control; values are per cent of control
Calcium/calmodulin-dependent protein kinase type 1G (Homo sapiens), sequence (Q96NX5 whole entry): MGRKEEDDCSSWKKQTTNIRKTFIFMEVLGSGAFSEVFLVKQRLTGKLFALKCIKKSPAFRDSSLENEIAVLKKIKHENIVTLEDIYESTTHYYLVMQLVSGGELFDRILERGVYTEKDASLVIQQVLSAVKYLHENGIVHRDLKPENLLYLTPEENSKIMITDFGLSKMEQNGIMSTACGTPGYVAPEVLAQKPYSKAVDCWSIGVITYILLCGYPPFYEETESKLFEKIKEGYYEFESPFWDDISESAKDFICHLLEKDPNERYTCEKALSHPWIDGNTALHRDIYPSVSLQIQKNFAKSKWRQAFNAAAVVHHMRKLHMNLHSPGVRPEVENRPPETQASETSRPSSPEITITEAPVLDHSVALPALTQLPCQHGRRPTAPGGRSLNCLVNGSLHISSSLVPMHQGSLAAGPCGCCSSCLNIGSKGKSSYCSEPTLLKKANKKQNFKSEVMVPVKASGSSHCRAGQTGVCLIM

[5] = target: T1, Tyrosine-protein kinase ZAP-70 (Homo sapiens) (UniProt P43403); assay: Inhibition of human ZAP70 using poly[Glu:Tyr] (4:1) as substrate at 1 uM in presence of 32P-ATP by Hotspot assay relative to control; values are per cent of control
T1 sequence (whole entry): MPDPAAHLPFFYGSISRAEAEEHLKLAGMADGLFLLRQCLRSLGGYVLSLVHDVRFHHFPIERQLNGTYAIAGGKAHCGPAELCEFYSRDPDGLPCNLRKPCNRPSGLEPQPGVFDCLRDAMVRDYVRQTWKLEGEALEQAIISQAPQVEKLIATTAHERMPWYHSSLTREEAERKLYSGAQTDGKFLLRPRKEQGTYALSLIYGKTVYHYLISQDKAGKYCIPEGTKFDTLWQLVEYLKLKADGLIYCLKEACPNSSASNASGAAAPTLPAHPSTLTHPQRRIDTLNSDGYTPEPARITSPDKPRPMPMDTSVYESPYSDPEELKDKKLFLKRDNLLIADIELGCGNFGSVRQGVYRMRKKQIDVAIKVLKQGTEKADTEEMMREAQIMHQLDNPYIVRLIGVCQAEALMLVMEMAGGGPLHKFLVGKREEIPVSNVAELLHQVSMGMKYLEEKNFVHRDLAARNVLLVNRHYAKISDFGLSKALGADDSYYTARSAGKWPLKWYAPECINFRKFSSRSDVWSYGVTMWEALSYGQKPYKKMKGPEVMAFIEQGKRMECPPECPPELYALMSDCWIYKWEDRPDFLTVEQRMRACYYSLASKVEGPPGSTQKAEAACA

[6] = system: Peritoneal macrophage cell; assay: Inhibition of TNF-alpha induced necroptosis in thioglycolate-elicited mouse peritoneal macrophage assessed as increase in cell viability at 0.04 to 1 uM incubated for 24 hrs in presence of zVAD and SMAC007 by Cell Titer-Glo luminescent cell viability assay; format: functional, cell-based; settings: dose 0.04-1 µM
[7] = target: T2, Serine/threonine-protein kinase haspin (Homo sapiens) (UniProt Q8TF76); assay: Inhibition of human Haspin using histone H3 as substrate at 1 uM in presence of 32P-ATP by Hotspot assay relative to control; values are per cent of control
T2 sequence (whole entry): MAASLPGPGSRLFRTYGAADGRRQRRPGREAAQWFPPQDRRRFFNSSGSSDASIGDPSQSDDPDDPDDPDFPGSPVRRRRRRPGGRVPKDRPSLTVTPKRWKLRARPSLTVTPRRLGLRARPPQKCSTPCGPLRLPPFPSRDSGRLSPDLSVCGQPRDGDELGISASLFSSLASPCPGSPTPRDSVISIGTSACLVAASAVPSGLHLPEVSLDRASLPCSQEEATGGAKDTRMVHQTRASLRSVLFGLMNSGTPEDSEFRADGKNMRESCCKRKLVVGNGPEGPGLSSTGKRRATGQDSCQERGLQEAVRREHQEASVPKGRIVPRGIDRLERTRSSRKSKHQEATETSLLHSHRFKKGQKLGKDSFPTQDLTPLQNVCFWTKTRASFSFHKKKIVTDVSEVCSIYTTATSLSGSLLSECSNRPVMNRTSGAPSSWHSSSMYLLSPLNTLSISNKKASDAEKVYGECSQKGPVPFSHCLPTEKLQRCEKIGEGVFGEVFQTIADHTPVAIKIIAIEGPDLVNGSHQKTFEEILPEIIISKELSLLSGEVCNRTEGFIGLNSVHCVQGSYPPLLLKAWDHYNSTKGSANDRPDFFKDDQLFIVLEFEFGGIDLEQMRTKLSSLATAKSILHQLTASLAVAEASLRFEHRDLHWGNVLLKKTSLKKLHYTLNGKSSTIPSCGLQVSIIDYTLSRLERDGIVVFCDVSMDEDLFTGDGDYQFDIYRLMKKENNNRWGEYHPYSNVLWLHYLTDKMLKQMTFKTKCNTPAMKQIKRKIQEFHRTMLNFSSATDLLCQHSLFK

[8] = target: Vascular endothelial growth factor receptor 1 (Homo sapiens) (UniProt P17948); assay: Inhibition of human FLT1/VEGFR1 using poly[Glu:Tyr] (4:1) as substrate at 1 uM in presence of 32P-ATP by Hotspot assay relative to control; values are per cent of control
Vascular endothelial growth factor receptor 1 (Homo sapiens), sequence (P17948 whole entry): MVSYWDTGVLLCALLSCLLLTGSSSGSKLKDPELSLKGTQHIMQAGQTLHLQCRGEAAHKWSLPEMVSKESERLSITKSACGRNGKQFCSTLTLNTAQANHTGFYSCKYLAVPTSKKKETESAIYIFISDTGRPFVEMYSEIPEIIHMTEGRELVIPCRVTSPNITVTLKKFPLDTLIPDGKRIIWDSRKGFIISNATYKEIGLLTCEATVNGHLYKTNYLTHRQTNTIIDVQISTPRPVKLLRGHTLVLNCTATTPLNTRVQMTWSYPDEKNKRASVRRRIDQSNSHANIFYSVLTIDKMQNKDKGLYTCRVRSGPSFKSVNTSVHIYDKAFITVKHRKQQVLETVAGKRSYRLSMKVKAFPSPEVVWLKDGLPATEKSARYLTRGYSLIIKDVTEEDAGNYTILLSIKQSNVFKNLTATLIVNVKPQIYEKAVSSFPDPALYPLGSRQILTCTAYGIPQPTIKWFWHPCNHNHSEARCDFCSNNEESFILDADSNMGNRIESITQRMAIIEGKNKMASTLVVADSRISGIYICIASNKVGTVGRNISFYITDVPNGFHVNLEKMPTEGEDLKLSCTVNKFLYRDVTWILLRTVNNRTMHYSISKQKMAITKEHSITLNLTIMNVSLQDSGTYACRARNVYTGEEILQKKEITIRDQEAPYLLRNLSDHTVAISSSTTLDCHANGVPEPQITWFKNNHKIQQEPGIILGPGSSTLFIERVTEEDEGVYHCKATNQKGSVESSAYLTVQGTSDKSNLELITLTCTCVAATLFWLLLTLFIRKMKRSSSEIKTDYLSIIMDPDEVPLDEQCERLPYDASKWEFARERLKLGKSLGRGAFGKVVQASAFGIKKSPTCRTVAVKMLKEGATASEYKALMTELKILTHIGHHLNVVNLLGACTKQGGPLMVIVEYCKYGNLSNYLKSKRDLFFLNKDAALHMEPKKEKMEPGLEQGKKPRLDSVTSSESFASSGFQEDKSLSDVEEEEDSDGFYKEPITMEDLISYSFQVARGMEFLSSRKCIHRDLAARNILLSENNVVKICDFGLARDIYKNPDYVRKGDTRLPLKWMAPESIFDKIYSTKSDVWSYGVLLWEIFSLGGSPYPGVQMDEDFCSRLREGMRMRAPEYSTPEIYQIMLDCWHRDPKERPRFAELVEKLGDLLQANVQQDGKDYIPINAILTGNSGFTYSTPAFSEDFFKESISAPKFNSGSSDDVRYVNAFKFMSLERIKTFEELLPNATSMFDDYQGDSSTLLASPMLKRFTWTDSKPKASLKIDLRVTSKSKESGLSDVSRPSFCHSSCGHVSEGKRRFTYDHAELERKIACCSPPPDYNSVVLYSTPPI

[9] = target: Protein kinase C theta type (Homo sapiens) (UniProt Q04759); assay: Residual activity of human PKCtheta using ERMRPRKRQGSVRRRV as substrate at 1 uM in presence of 32P-ATP by Hotspot assay relative to control
Protein kinase C theta type (Homo sapiens), sequence (Q04759 whole entry, looked up): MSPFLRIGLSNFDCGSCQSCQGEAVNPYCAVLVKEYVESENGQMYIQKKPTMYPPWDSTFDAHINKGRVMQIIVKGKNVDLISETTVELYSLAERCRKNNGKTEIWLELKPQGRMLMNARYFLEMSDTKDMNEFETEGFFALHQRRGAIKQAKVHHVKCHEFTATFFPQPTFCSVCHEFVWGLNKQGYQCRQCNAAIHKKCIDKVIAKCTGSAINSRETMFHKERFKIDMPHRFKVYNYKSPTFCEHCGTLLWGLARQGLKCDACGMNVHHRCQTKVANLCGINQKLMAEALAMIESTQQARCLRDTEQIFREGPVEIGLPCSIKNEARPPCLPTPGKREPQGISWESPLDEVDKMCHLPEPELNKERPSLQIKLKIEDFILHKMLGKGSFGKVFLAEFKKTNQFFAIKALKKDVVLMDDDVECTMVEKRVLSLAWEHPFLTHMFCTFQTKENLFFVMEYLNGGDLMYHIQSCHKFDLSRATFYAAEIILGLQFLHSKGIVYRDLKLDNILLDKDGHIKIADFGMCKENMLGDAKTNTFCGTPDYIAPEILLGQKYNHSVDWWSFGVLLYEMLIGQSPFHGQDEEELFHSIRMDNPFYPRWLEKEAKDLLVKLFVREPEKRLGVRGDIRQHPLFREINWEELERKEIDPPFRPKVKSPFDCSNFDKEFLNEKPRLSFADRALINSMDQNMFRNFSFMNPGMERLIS

Ephrin type-A receptor 7 (Homo sapiens), sequence (Q15375 28-998 limits assumed): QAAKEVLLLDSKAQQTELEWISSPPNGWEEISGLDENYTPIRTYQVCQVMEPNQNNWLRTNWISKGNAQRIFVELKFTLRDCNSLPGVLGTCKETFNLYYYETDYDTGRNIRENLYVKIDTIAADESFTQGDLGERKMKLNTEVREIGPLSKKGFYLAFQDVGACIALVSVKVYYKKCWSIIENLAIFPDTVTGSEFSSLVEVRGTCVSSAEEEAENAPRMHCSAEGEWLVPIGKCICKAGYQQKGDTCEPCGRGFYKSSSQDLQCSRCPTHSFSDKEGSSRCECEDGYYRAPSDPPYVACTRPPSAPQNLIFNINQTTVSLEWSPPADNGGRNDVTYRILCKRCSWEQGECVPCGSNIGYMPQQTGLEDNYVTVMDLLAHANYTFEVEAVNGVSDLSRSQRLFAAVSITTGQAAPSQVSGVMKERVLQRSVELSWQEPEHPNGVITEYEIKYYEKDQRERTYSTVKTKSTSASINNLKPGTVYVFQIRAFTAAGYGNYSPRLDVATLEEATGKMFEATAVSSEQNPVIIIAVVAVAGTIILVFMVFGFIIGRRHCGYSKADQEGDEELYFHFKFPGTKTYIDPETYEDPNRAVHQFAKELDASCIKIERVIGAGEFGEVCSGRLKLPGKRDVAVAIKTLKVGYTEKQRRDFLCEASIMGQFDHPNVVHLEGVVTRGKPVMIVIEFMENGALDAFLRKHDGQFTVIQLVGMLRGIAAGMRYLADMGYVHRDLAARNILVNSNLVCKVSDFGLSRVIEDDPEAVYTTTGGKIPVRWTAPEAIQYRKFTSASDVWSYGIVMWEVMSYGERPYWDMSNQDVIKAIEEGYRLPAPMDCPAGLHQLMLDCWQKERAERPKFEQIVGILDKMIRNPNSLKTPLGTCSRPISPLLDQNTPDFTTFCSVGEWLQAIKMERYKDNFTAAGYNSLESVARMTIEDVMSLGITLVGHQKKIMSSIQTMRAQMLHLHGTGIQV

| SMILES | residual activity [1] [%] | residual activity [2] [%] | inhibition [3] | residual activity [4] [%] | residual activity [5] [%] | inhibition [6] | residual activity [7] [%] | residual activity [8] [%] | residual activity [9] [%] |
| --- | --- | --- | --- | --- | --- | --- | --- | --- | --- |
| CC(C)S(=O)(=O)c1ccc2nccc(Nc3ccc4scnc4c3)c2c1 | 90.8 | 108 | Active | 85.6 | 102 | Active | 86.2 | 85 | 92.8 |
| Cc1cc(-c2cnc(N)c3c(-c4ccc5scnc5c4)csc23)n(C)n1 | 101 | 89.8 | Active | 90.9 | 89.8 | Active | 95.5 | 96.8 | 98.3 |
| CNC(=O)c1ccc2c(c1)ncn2-c1ccc(CC(=O)OC(C)(C)C)cc1 | 87.8 | 93.9 | inactive | 94.2 | 102 | inactive | 98.1 | 72.5 | 104 |
